Assay results reported in US20240384350A1, “METHODS OF TREATING CANCER WITH KINASE INHIBITORS” (BOARD OF REGENTS, THE UNIVERSITY OF TEXAS SYSTEM, priority 2021, published 2024).

Columns and labels:
Assay in all cases: Ba/F3 drug screening, Cell Titer Glo, IC50 Mut/WT
Format in all cases: cell-based
[1] = biological target: T1, EGFR Ex19del/T790M/G724S (Homo sapiens, UniProt P00533, DEL746-750/G724S/T790M); conditions: T790M-like-3S, 72 hours
T1 construct: expressed in transfected cells; host or cells: Ba/F3

[2] = biological target: T2, EGFR L718V (Homo sapiens, UniProt P00533, L718V); conditions: for ratio of the IC50 value for cells with a PACC EGFR mutation to the IC50 value for cells with wildtype EGFR: Ba/F3 cells, EGFR L718V (PACC), Mut/WT
T2 construct: expressed in transfected cells; host or cells: Ba/F3

[3] = biological target: T3, EGFR L858R L718Q (Homo sapiens, UniProt P00533, L718Q/L858R); conditions: for ratio of the IC50 value for cells with a PACC EGFR mutation to the IC50 value for cells with wildtype EGFR: Ba/F3 cells, EGFR L858R L718Q (PACC), Mut/WT
T3 construct: host or cells: Ba/F3
Experimental: (§1) Data represent the ratio of the IC50 value for a given TKI for cells with a PACC EGFR mutation to the IC50 value for cells with wildtype EGFR.
(§2) Ba/F3 cell generation, drug screening, and IC50 approximations. Ba/F3 cells were obtained as a gift from Dr. Gordon Mills (MD Anderson Cancer Center), and maintained in RPMI (Sigma) containing 10% FBS, 1% penicillin/streptomycin, and 10 ng/ml recombinant mIL-3 (R&D Biosystems). To establish stable Ba/F3 cell lines, Ba/F3 cells were transduced with retroviruses containing mutant EGFR plasmids for 12-24 hours.
(§3) After 48-72 hours of transduction, 2 μg/ml puromycin (Invitrogen) was added to Ba/F3 cell lines in complete RPMI. To select for EGFR positive cell lines, cells were stained with PE-EGFR (Biolegend) and sorted by FACS. After sorting, EGFR positive cells were maintained in RPMI containing 10% FBS, 1% penicillin/streptomycin, and 1 ng/ml EGF to support cell viability. Drug screening was performed as previously described^41,42. Shortly, cells were plated in 384-well plates (Greiner Bio-One) at 2000-3000 cells per well in technical triplicate. Seven different concentrations of TKIs or DMSO vehicle were added to reach a final volume of 40 μL per well. After 72 hours, 11 μL of Cell Titer Glo (Promega) was added to each well. Plates were incubated for a minimum of 10 minutes, and bioluminescence was determined using a FLUOstar OPTIMA plate reader (BMG LABTECH). Raw bioluminescence values were normalized to DMSO control treated cells, and values were plotted in GraphPad Prism. […] Drug screens were performed in technical triplicate on each plate and either duplicate or triplicate biological replicates.

[4] = biological target: T4, EGFR L858R/V834L (Homo sapiens, UniProt P00533, L858R/V834L); conditions: Classical-Like, 72 hours
T4 construct: expressed in transfected cells; host or cells: Ba/F3 cells, retroviral pBabe-Puro vector
Experimental: (§4) Data represent the ratio of the IC50 value for a given TKI for cells with a classical-like EGFR mutation to the IC50 value for cells with wildtype EGFR.
as §2
(§5) After 48-72 hours of transduction, 2 μg/ml puromycin (Invitrogen) was added to Ba/F3 cell lines in complete RPMI. To select for EGFR positive cell lines, cells were stained with PE-EGFR (Biolegend) and sorted by FACS. After sorting, EGFR positive cells were maintained in RPMI containing 10% FBS, 1% penicillin/streptomycin, and 1 ng/ml EGF to support cell viability. […] Shortly, cells were plated in 384-well plates (Greiner Bio-One) at 2000-3000 cells per well in technical triplicate. Seven different concentrations of TKIs or DMSO vehicle were added to reach a final volume of 40 μL per well. After 72 hours, 11 μL of Cell Titer Glo (Promega) was added to each well. Plates were incubated for a minimum of 10 minutes, and bioluminescence was determined using a FLUOstar OPTIMA plate reader (BMG LABTECH). Raw bioluminescence values were normalized to DMSO control treated cells, and values were plotted in GraphPad Prism. […] Drug screens were performed in technical triplicate on each plate and either duplicate or triplicate biological replicates.

[5] = biological target: T5, EGFR L833F (Homo sapiens, UniProt P00533, L833F); conditions: Classical-Like, 72 hours
T5 construct: expressed in transfected cells; host or cells: Ba/F3 cells, retroviral pBabe-Puro vector

[6] = biological target: T6, EGFR L858R S784F (Homo sapiens, UniProt P00533, L858R/S784F); conditions: Classical-Like, 72 hours
T6 construct: expressed in transfected cells; host or cells: Ba/F3 cells, retroviral pBabe-Puro vector (vector made by GeneScript from EGFR L858R)
Experimental: as §4, §2, §5

[7] = biological target: T7, EGFR N771dupN (Homo sapiens, UniProt P00533, DUP771-771); conditions: Ex20, 72 hours
T7 construct: expressed in transfected cells; host or cells: Ba/F3 cells, retroviral pBabe-Puro vector
Experimental: (§6) Data represent the ratio of the IC50 value for a given TKI for cells with an ex20ins EGFR mutation to the IC50 value for cells with wildtype EGFR.
as §2
(§7) After 48-72 hours of transduction, 2 μg/ml puromycin (Invitrogen) was added to Ba/F3 cell lines in complete RPMI. To select for EGFR positive cell lines, cells were stained with PE-EGFR (Biolegend) and sorted by FACS. After sorting, EGFR positive cells were maintained in RPMI containing 10% FBS, 1% penicillin/streptomycin, and 1 ng/ml EGF to support cell viability. Drug screening was performed as previously described^41,42. Shortly, cells were plated in 384-well plates (Greiner Bio-One) at 2000-3000 cells per well in technical triplicate. Seven different concentrations of TKIs or DMSO vehicle were added to reach a final volume of 40 μL per well. After 72 hours, 11 μL of Cell Titer Glo (Promega) was added to each well. Plates were incubated for a minimum of 10 minutes, and bioluminescence was determined using a FLUOstar OPTIMA plate reader (BMG LABTECH). Raw bioluminescence values were normalized to DMSO control treated cells, and values were plotted in GraphPad Prism. […] Drug screens were performed in technical triplicate on each plate and either duplicate or triplicate biological replicates. […] Statistical differences between groups were determined by ANOVA as described in the figure legends.

[8] = biological target: T8, EGFR L858R T790M L792H (Homo sapiens, UniProt P00533, L792H/L858R/T790M); conditions: T790M-like-3S, 72 hours
T8 construct: expressed in transfected cells; host or cells: Ba/F3

[9] = biological target: T9, EGFR A763insFQEA (Homo sapiens, UniProt P00533, INS763FQEA); conditions: Classical-Like, 72 hours
T9 construct: expressed in transfected cells; host or cells: Ba/F3 cells, retroviral pBabe-Puro vector
Experimental: as §4, §2, §5

[10] = biological target: T10, EGFR E709K L858R (Homo sapiens, UniProt P00533, E709K/L858R); conditions: Classical-Like, 72 hours
T10 construct: expressed in transfected cells; host or cells: Ba/F3 cells, retroviral pBabe-Puro vector
Experimental: as §4, §2, §5

[11] = biological target: T11, EGFR D770insNPG (Homo sapiens, UniProt P00533, INS770NPG); conditions: Ex20, 72 hours
T11 construct: expressed in transfected cells; host or cells: Ba/F3 cells, retroviral pBabe-Puro vector
Experimental: as §6, §2, §7

[12] = biological target: T12, EGFR L858R/T790M (Homo sapiens, UniProt P00533, L858R/T790M); conditions: T790M-like-3S, 72 hours
T12 construct: expressed in transfected cells; host or cells: Ba/F3
Experimental: (§8) Data represent the ratio of the IC50 value for a given TKI for cells with a T790M-like-3S EGFR mutation to the IC50 value for cells with wildtype EGFR.
as §2, §3

[13] = biological target: T13, EGFR L747P (Homo sapiens, UniProt P00533, L747P); conditions: for ratio of the IC50 value for cells with a PACC EGFR mutation to the IC50 value for cells with wildtype EGFR: Ba/F3 cells, EGFR L747P (PACC), Mut/WT
T13 construct: expressed in transfected cells; host or cells: Ba/F3
Experimental: as §1, §2, §7

[14] = biological target: T14, EGFR S811F (Homo sapiens, UniProt P00533, S811F); conditions: Classical-Like, 72 hours
T14 construct: expressed in transfected cells; host or cells: Ba/F3 cells, retroviral pBabe-Puro vector (vector made by GeneScript from EGFR WT)
Experimental: as §4, §2, §5

[15] = biological target: T15, EGFR S768dupSVD V769M (Homo sapiens, UniProt P00533, INS768MDS/V769M); conditions: Ex20, 72 hours
T15 construct: expressed in transfected cells; host or cells: Ba/F3 cells, retroviral pBabe-Puro vector (vector made by GeneScript from EGFR S768dupSVD, c.2305G > A)
Experimental: as §6, §2, §7

[16] = biological target: T16, EGFR S768I V774M (Homo sapiens, UniProt P00533, S768I/V774M); conditions: for ratio of the IC50 value for cells with a PACC EGFR mutation to the IC50 value for cells with wildtype EGFR: Ba/F3 cells, EGFR S768I V774M (PACC), Mut/WT
T16 construct: host or cells: Ba/F3
Experimental: as §1, §2, §3

[17] = biological target: T17, EGFR Ex19del T790M L718V (Homo sapiens, UniProt P00533, DEL746-750/L718V/T790M); conditions: T790M-like-3S, 72 hours
T17 construct: expressed in transfected cells; host or cells: Ba/F3
Experimental: as §8, §2, §3

[18] = biological target: T18, EGFR K757R (Homo sapiens, UniProt P00533, K757R); conditions: for ratio of the IC50 value for cells with a PACC EGFR mutation to the IC50 value for cells with wildtype EGFR: Ba/F3 cells, EGFR K757R (PACC), Mut/WT
T18 construct: expressed in transfected cells; host or cells: Ba/F3

[19] = biological target: T19, EGFR L861Q (Homo sapiens, UniProt P00533, L861Q); conditions: Classical-Like, 72 hours
T19 construct: expressed in transfected cells; host or cells: Ba/F3 cells, retroviral pBabe-Puro vector
Experimental: as §4, §2, §5

[20] = biological target: T20, EGFR A763insLQEA (Homo sapiens, UniProt P00533, INS763LQEA); conditions: Classical-Like, 72 hours
T20 construct: expressed in transfected cells; host or cells: Ba/F3 cells, retroviral pBabe-Puro vector
Experimental: as §4, §2, §5

[21] = biological target: T21, EGFR L858R/T790M/C797S (Homo sapiens, UniProt P00533, C797S/L858R/T790M); conditions: T790M-like-3R, 72 hours
T21 construct: expressed in transfected cells; host or cells: Ba/F3
Experimental: Data represent the ratio of the IC50 value for a given TKI for cells with a T790M-like-3R EGFR mutation to the IC50 value for cells with wildtype EGFR.
as §2
After 48-72 hours of transduction, 2 μg/ml puromycin (Invitrogen) was added to Ba/F3 cell lines in complete RPMI. To select for EGFR positive cell lines, cells were stained with PE-EGFR (Biolegend) and sorted by FACS. After sorting, EGFR positive cells were maintained in RPMI containing 10% FBS, 1% penicillin/streptomycin, and 1 ng/ml EGF to support cell viability. […] Shortly, cells were plated in 384-well plates (Greiner Bio-One) at 2000-3000 cells per well in technical triplicate. Seven different concentrations of TKIs or DMSO vehicle were added to reach a final volume of 40 μL per well. After 72 hours, 11 μL of Cell Titer Glo (Promega) was added to each well. Plates were incubated for a minimum of 10 minutes, and bioluminescence was determined using a FLUOstar OPTIMA plate reader (BMG LABTECH). Raw bioluminescence values were normalized to DMSO control treated cells, and values were plotted in GraphPad Prism. […] Drug screens were performed in technical triplicate on each plate and either duplicate or triplicate biological replicates. […] Statistical differences between groups were determined by ANOVA as described in the figure legends.

[22] = biological target: T22, EGFR L861R (Homo sapiens, UniProt P00533, L861R); conditions: Classical-Like, 72 hours
T22 construct: expressed in transfected cells; host or cells: Ba/F3 cells, retroviral pBabe-Puro vector (vector made by GeneScript from EGFR WT)

[23] = biological target: T23, EGFR L718Q (Homo sapiens, UniProt P00533, L718Q); conditions: for ratio of the IC50 value for cells with a PACC EGFR mutation to the IC50 value for cells with wildtype EGFR: Ba/F3 cells, EGFR L718Q (PACC), Mut/WT
T23 construct: expressed in transfected cells; host or cells: Ba/F3

[24] = biological target: T24, EGFR D761N (Homo sapiens, UniProt P00533, D761N); conditions: Classical-Like, 72 hours
T24 construct: expressed in transfected cells; host or cells: Ba/F3 cells, retroviral pBabe-Puro vector

Structure (SMILES) | ratio of IC50 for cells with mutant EGFR to IC50 for cells with wildtype EGFR (Mut/WT) [1] | ratio of the IC50 value for cells with a PACC EGFR mutation to the IC50 value for cells with wildtype EGFR [2] | ratio of the IC50 value for cells with a PACC EGFR mutation to the IC50 value for cells with wildtype EGFR [3] | ratio of IC50 for cells with mutant EGFR to IC50 for cells with wildtype EGFR (Mut/WT) [4] | ratio of IC50 for cells with mutant EGFR to IC50 for cells with wildtype EGFR (Mut/WT) [5] | ratio of IC50 for cells with mutant EGFR to IC50 for cells with wildtype EGFR (Mut/WT) [6] | ratio of IC50 for cells with mutant EGFR to IC50 for cells with wildtype EGFR (Mut/WT) [7] | ratio of IC50 for cells with mutant EGFR to IC50 for cells with wildtype EGFR (Mut/WT) [8] | ratio of IC50 for cells with mutant EGFR to IC50 for cells with wildtype EGFR (Mut/WT) [9] | ratio of IC50 for cells with mutant EGFR to IC50 for cells with wildtype EGFR (Mut/WT) [10] | ratio of IC50 for cells with mutant EGFR to IC50 for cells with wildtype EGFR (Mut/WT) [11] | ratio of IC50 for cells with mutant EGFR to IC50 for cells with wildtype EGFR (Mut/WT) [12] | ratio of IC50 for cells with mutant EGFR to IC50 for cells with wildtype EGFR (Mut/WT) [14] | ratio of IC50 for cells with mutant EGFR to IC50 for cells with wildtype EGFR (Mut/WT) [15] | ratio of IC50 for cells with mutant EGFR to IC50 for cells with wildtype EGFR (Mut/WT) [17] | ratio of IC50 for cells with mutant EGFR to IC50 for cells with wildtype EGFR (Mut/WT) [19] | ratio of IC50 for cells with mutant EGFR to IC50 for cells with wildtype EGFR (Mut/WT) [20] | ratio of IC50 for cells with mutant EGFR to IC50 for cells with wildtype EGFR (Mut/WT) [21] | ratio of IC50 for cells with mutant EGFR to IC50 for cells with wildtype EGFR (Mut/WT) [22] | ratio of IC50 for cells with mutant EGFR to IC50 for cells with wildtype EGFR (Mut/WT) [24] | further results
C=CC(=O)N[C@H]1C=C(C)c2c(-c3cnc4ccccc4c3)c3c(N)ncnc3n2C1 [TAS 6417] | 0.1997 | 0.02378 | 0.0157 | 0.0005227 | 0.06886 | 0.001423 | 0.05134 | 9.536E−05 | 0.004982 | 0.002607 | 0.0168 | 0.01963 | 0.009026 | 0.02679 | 0.002884 | 0.02761 | 0.005254 | 4.897 | 0.02984 | 0.2474 | ratio of the IC50 value for cells with a PACC EGFR mutation to the IC50 value for cells with wildtype EGFR [13]: 0.1949; ratio of the IC50 value for cells with a PACC EGFR mutation to the IC50 value for cells with wildtype EGFR [16]: 0.3996; ratio of the IC50 value for cells with a PACC EGFR mutation to the IC50 value for cells with wildtype EGFR [18]: 0.4608; ratio of the IC50 value for cells with a PACC EGFR mutation to the IC50 value for cells with wildtype EGFR [23]: 0.02239
Cc1cc(C(=O)Nc2nc3cccc(Cl)c3n2[C@@H]2CCCCN(C(=O)/C=C/CN(C)C)C2)ccn1 [Nazartinib] | 0.06117 | 1.157 | 0.6234 | 0.01123 | 0.0584 | 0.03577 | 0.371 | 0.02884 | 0.05676 | 0.01992 | 0.529 | 0.01957 | 0.00115 | 0.3262 | 0.2594 | 0.03861 | 0.05507 | 2.649 | 0.01121 | 0.0009686 | ratio of the IC50 value for cells with a PACC EGFR mutation to the IC50 value for cells with wildtype EGFR [13]: 0.2221; ratio of the IC50 value for cells with a PACC EGFR mutation to the IC50 value for cells with wildtype EGFR [16]: 0.09563; ratio of the IC50 value for cells with a PACC EGFR mutation to the IC50 value for cells with wildtype EGFR [18]: 0.3486; ratio of the IC50 value for cells with a PACC EGFR mutation to the IC50 value for cells with wildtype EGFR [23]: 1.245
COc1cc2ncnc(Nc3cccc(Cl)c3F)c2cc1OC(=O)N1CCN(C)C[C@H]1C [AZD3759] | 4.645 | – | – | 0.002241 | 0.1249 | 0.01546 | 1.567 | 9.625 | 0.02225 | 0.02202 | 3.835 | 6.744 | 0.006423 | 1.659 | 4.812 | 0.08924 | 0.02905 | 9.625 | 0.03704 | 0.6757 | ratio of IC50 for cells with mutant EGFR to IC50 for cells with wildtype EGFR (Mut/WT) ([2]; PACC, L718V, Ba/F3, 72 hours): 0.6898; ratio of IC50 for cells with mutant EGFR to IC50 for cells with wildtype EGFR (Mut/WT) ([3]; PACC, L858R L718Q, Ba/F3, 72 hours): 0.3765; ratio of IC50 for cells with mutant EGFR to IC50 for cells with wildtype EGFR (Mut/WT) ([13]; PACC, L747P, Ba/F3, 72 hours): 0.2937; ratio of IC50 for cells with mutant EGFR to IC50 for cells with wildtype EGFR (Mut/WT) ([16]; PACC, S768I V774M, Ba/F3, 72 hours): 0.2555; ratio of IC50 for cells with mutant EGFR to IC50 for cells with wildtype EGFR (Mut/WT) ([18]; PACC, K757R, Ba/F3, 72 hours): 0.7085; ratio of IC50 for cells with mutant EGFR to IC50 for cells with wildtype EGFR (Mut/WT) ([23]; PACC, L718Q, Ba/F3, 72 hours): 1.696
